These are literature values, as cited in patent US7455864B2, “Melatonin-based composition for improved sleep” (Iomedix Development International Srl, priority 2007, dated 2008).

For data set [1], the system named is humans. Conditions: transdermal absorption.
Data set [2] deals with humans. Conditions: melatonin supplementation in humans.
Data set [3] relates to humans. As to conditions: melatonin supplementation in humans. The source holds these as a separate data set.

Structures are written as SMILES.

Regarding `C=CC(C)(O)CCC=C(C)C` (stereo not shown) [linalool], in the data set with humans [1], the blood pressure result is listed as “reduce” and the skin temperature entry is listed as “reduce”.

Take `COc1ccc2[nH]cc(CCNC(C)=O)c2c1` [Melatonin]: the “treatment of jet lag” value in the data set on humans [2] is recorded as “efficacious for treating jet lag”. The onset of sleep result in the data set on humans [3] is listed as “hastening the onset of sleep”.
